The record followed here is patent US20060058320A1, “[1,2,4] Triazolo[1,5-c]pyrimidine derivatives” (KYOWA HAKKO KOGYO CO., LTD., priority 2002, published 2006).

Assay [1] has as its system CGS 21680-induced catalepsy. The experiment in a line: Activity on CGS 21680-induced catalepsy. The class given is in vivo, mice. Particulars: for inhibition in vivo at 10 mg/kg: Mus musculus, po, read-out: Remission ratio (%); for Total score: total catalepsy score of 10 mice (maximum 50 points; 40 points or less = positive), one hour after administration. As for the experimental part:
Parkinson's disease is a motor disorder based on degeneration and cell death of the nigrostriatal dopaminergic neurons. When CGS 21680 (adenosine A2A receptor agonist) is administered into the intracerebral ventricle, the inhibitory synaptic transmission of GABA in the medium sized spiny neurons in the corpus striatum is inhibited directly via the adenosine A2A receptor [Journal of Neuroscience, vol. 16, p. 605 (1996)]. Accordingly, it is concidered that the adenosine A2A receptor agonists positively regulate the output of the GABAergic neurons from the corpus striatum to the globus pallidus lateralis, and, as a result, catalepsy is induced by the administration of CGS 21680.
The test was carried out using ten 5-week age male ddY mice (22-25 g in body weight, Japan SLC) per group. CGS 21680 (produced by RBI Co) was dissolved in physiological saline (produced by Otsuka Pharmaceutical Co., Ltd.), and 10 μg/20 μL of the solution was injected into mouse intracerebral ventricle. Each test compound was used by suspending it in distilled water containing 0.3% of polyoxylene (20) sorbitan monooleate (referred to as “Tween 80” hereinafter) (produced by Otsuka Pharmaceutical Co., Ltd.). The suspension containing each test compound or a solution containing no test Compound (distilled water containing 0.3% of Tween 80; used as a control) was orally administered (0.1 mL per 10 g of mouse body weight) 30 minutes before the injection of CGS 21680 into the intracerebral ventricle. One hour after the administration of the each test compound, only forelimbs or only hindlimbs of each mouse were laid on a vertically arranged stand made of acryl and having a size of 4.5 cm in height and 1.0 cm in width to measure catalepsy symptoms. All of the test compounds were administered orally in a dose of 10 mg/kg.
The criteria of the catalepsy score are shown below.
The effect was decided by a total catalepsy score of 10 mice in one group (the maximum score: 50 points). When the total score was 40 points or less, the activity of the compounds was decided positive. The number of the animals showing remission of catalepsy was expressed by the number of cases showing a catalepsy score of 4 points or less in 10 cases. The catalepsy remission ratio was expressed as the percentage of the total score in the test compound-administered group to the total score in the control group.

For a further assay, the target named is T1, adenosine A2A receptor (Rattus norvegicus, UniProt P30543).
T1 construct: from tissue; host or cells: rat corpus striatum membrane preparation
Nature of the assay: Adenosine A2A receptor binding test (3H-CGS 21680 binding). Particulars: for inhibition at 0.1 µM: read-out: A2A Receptor inhibition rate (%) at 10^−7 mol/L. Here is the method: The test was carried out according to the method of Bruns et al. [Molecular Pharmacology, vol. 29, p.
Rat corpus striatum was suspended in an ice-cold 50 mmol/L tris(hydroxymethyl)aminomethane hydrochloride (referred to as “Tris HCl” hereinafter) buffer (pH 7.7) using a Polytron homogenizer (produced by Kinematica Co.). The suspension was centrifuged (50,000×g, 10 minutes), and the resulting precipitate was again suspended in the same amount of a 50 mmol/L Tris HCl buffer, followed by centrifugation under the same conditions. The resulting finalprecipitate was again suspended in a 50 mmol/L-Tris HCl buffer [containing 10 mmol/L of magnesium chloride and 0.02 unit/mg tissue of adenosine deaminase (produced by Sigma Co.)] so that the tissue concentration was 5 mg (wet weight)/mL.
The radioactivity on the filter was determined with a liquid scintillation counter (produced by Packard Instrument Co.).
In the equation, X represents Amount of binding in the presence of a medicament, Y represents Amount of nonspecific binding, and Z represents Amount of total binding.

The mark [2] stands for this setting: from total score of test group and control group, 10 mg/kg orally.
[3] abbreviates: test compound 10^−7 mol/L, 3H-CGS 21680 binding, rat corpus striatum.

Counter-ions that a name gives are not always drawn. Like-named read-outs stand apart in the source and are kept apart here.

T1 sequence (P30543 whole entry): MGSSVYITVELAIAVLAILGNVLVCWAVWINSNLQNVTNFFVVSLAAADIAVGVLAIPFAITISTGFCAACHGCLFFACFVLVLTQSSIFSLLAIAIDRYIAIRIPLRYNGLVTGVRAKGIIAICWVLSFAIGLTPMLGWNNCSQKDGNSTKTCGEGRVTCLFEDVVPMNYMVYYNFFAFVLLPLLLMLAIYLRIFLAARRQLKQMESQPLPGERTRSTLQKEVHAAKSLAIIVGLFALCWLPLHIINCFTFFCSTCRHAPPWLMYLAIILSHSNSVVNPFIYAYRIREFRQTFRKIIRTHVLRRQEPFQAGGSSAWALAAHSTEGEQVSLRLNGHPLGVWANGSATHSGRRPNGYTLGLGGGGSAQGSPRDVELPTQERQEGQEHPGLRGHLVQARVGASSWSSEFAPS

Take `Nc1nc(C(=O)c2ccc(F)cc2)cc2nc(-c3ccco3)nn12` [Compound 40, 5-Amino-7-(4-fluorobenzoyl)-2-(2-furyl)[1,2,4]triazolo-[1,5-c]pyrimidine]: in assay [1] (setting [2]), the inhibition in vivo at 10 mg/kg came to 94%. This molecule also yielded a Total score in assay [1] (10 mg/kg orally) of 3. Besides, the inhibition at 0.1 µM at adenosine A2A receptor (setting [3]) came out at 58%.

In the case of `COCCN1CCN(Cc2cc3nc(-c4ccco4)nn3c(N)n2)CC1` [Compound 49, 5-Amino-2-(2-furyl)-7-[4-(2-methoxyethyl)piperazin-1-yl-methyl][1,2,4]triazolo[1,5-c]pyrimidine dihydrochloride], the inhibition in vivo at 10 mg/kg in assay [1] came out at 92%. The Total score in assay [1] (10 mg/kg orally) is 4. Further, the inhibition at 0.1 µM at adenosine A2A receptor (setting [3]) was 89%.

As to `Nc1nc(-c2cc3nc(-c4ccco4)nn3c(N)n2)cs1` [Compound 58, 5-Amino-7-(2-aminothiazol-4-yl)-2-(2-furyl)-[1,2,4]triazolo-[1,5-c]pyrimidine], the inhibition in vivo at 10 mg/kg in assay [1] (setting [2]) came to 80%. The Total score in assay [1] (10 mg/kg orally) was determined as 10. Moreover, on adenosine A2A receptor (setting [3]), the inhibition at 0.1 µM worked out at 70%.

Regarding `Nc1nc(C#CC2(O)CCCC2)cc2nc(-c3ccco3)nn12` [Compound 69, 5-Amino-2-(2-furyl)-7-[2-(1-hydroxycyclopentyl)ethynyl][1,2,4]triazolo[1,5-c]pyrimidine], the inhibition in vivo at 10 mg/kg in assay [1] (setting [2]) came to 96%. The Total score in assay [1] (10 mg/kg orally) is listed as 2. For the same molecule, the inhibition at 0.1 µM at adenosine A2A receptor (setting [3]) turned out to be 78%.

For `COCCN1CC=C(c2cc3nc(-c4ccco4)nn3c(N)n2)CC1` [Compound 73, 5-Amino-2-(2-furyl)-7-[1-(2-methoxyethyl)-1,2,3,6-tetra-hydropyridin-4-yl][1,2,4]triazolo[1,5-c]pyrimidine], the inhibition in vivo at 10 mg/kg in assay [1] is 88%. The molecule further came in with a Total score in assay [1] (10 mg/kg orally) of 6. Besides, on adenosine A2A receptor, the inhibition at 0.1 µM is 98%.

For `CCN(Cc1ccccc1)C(=O)c1cc2nc(-c3ccco3)nn2c(N)n1` [Compound 99, 5-Amino-2-(2-furyl)[1,2,4]triazolo[1,5-c]pyrimidine-7-carboxylic acid (N-benzyl-N-ethyl)amide], at adenosine A2A receptor (setting [3]), the inhibition at 0.1 µM came out at 69%.

Regarding `CN(Cc1ccco1)C(=O)c1cc2nc(-c3ccco3)nn2c(N)n1` [Compound 101, 5-Amino-2-(2-furyl)[1,2,4]triazolo[1,5-c]pyrimidine-7-carboxylic acid [N-(2-furylmethyl)-N-methyl]amide], the inhibition at 0.1 µM on adenosine A2A receptor (setting [3]) stood at 83%.

For `N#CCCN(Cc1cccnc1)C(=O)c1cc2nc(-c3ccco3)nn2c(N)n1` [Compound 103, 5-Amino-2-(2-furyl)[1,2,4]triazolo[1,5-c]pyrimidine-7-carboxylic acid [N-(2-cyanoethyl)-N-(3-pyridylmethyl)]amide], the inhibition at 0.1 µM at adenosine A2A receptor (setting [3]) was determined as 54%.

On to `CN(Cc1ccc2c(c1)OCO2)C(=O)c1cc2nc(-c3ccco3)nn2c(N)n1` [Compound 107, 5-Amino-2-(2-furyl)[1,2,4]triazolo[1,5-c]pyrimidine-7-carboxylic acid [N-(1,3-benzodioxol-5-ylmethyl)-N-methyl]amide monohydrochloride], for which, in assay [1] (setting [2]), the inhibition in vivo at 10 mg/kg turned out to be 90%. Also, the Total score in assay [1] (10 mg/kg orally) was 5. Further, on adenosine A2A receptor (setting [3]), the inhibition at 0.1 µM is 71%.

As for `COc1ccc(CN(C)C(=O)c2cc3nc(-c4ccco4)nn3c(N)n2)cc1` [Compound 108, 5-Amino-2-(2-furyl)[1,2,4]triazolo[1,5-c]pyrimidine-7-caroboxylic acid [N-(4-methoxybenzyl)-N-methyl]amide monohydrochloride], the inhibition in vivo at 10 mg/kg in assay [1] (setting [2]) was 96%. This molecule showed a Total score in assay [1] (10 mg/kg orally) of 2. In addition, on adenosine A2A receptor (setting [3]), the inhibition at 0.1 µM amounted to 65%.

With `CN(Cc1ccnc2ccccc12)C(=O)c1cc2nc(-c3ccco3)nn2c(N)n1` [Compound 113, 5-Amino-2-(2-furyl)[1,2,4]triazolo[1,5-c]pyrimidine-7-carboxylic acid [N-methyl-N-(4-quinolylmethyl)]amide], the inhibition in vivo at 10 mg/kg in assay [1] (setting [2]) was determined as 76%. This molecule displayed a Total score in assay [1] (10 mg/kg orally) of 12. Moreover, at adenosine A2A receptor (setting [3]), the inhibition at 0.1 µM amounted to 66%.

On to `CC(C)N(Cc1ccn(C)c1)C(=O)c1cc2nc(-c3ccco3)nn2c(N)n1` [Compound 116, 5-Amino-2-(2-furyl)[1,2,4]triazolo[1,5-c]pyrimidine-7-carboxylic acid [N-isopropyl-N-(1-methylpyrrol-3-ylmethyl)]amide], for which, in assay [1] (cases with catalepsy score of 4 points or less in 10 cases, 10 mg/kg orally), the “Number of animals showing remission” value is given as 9. Besides, the “Remission ratio (%)” value in assay [1] (setting [2]) is given as 82%. The Total score in assay [1] (10 mg/kg orally) amounted to 9. Besides, at adenosine A2A receptor (setting [3]), the “A2A Receptor inhibition rate (%) at 10^−7 mol/L” value worked out at 62%.

In the case of `CN(Cc1cccc(F)c1)C(=O)c1cc2nc(-c3ccco3)nn2c(N)n1` [Compound 120, 5-Amino-2-(2-furyl)[1,2,4]triazolo[1,5-c]pyrimidine-7-carboxylic acid [N-(3-fluorobenzyl)-N-methyl]amide monohydrochloride], the inhibition at 0.1 µM at adenosine A2A receptor (setting [3]) worked out at 61%.

On to `CN(Cc1ccccc1Cl)C(=O)c1cc2nc(-c3ccco3)nn2c(N)n1` [Compound 122, 5-Amino-2-(2-furyl)[1,2,4]triazolo[1,5-c]pyrimidine-7-carboxylic acid [N-(2-chlorobenzyl)-N-methyl]amide monohydrochloride], for which, in assay [1] (setting [2]), the inhibition in vivo at 10 mg/kg was determined as 80%. Also, the Total score in assay [1] (10 mg/kg orally) is listed as 10. Besides, at adenosine A2A receptor (setting [3]), the inhibition at 0.1 µM was 74%.

Regarding `CN(Cc1cccnc1Cl)C(=O)c1cc2nc(-c3ccco3)nn2c(N)n1` [Compound 128, 5-Amino-2-(2-furyl)[1,2,4]triazolo[1,5-c]pyrimidine-7-carboxylic acid [N-(2-chloropyridin-3-ylmethyl)-N-methyl]-amide], the inhibition at 0.1 µM on adenosine A2A receptor (setting [3]) is 59%.

Take `COc1ccc(CN(C)C(=O)c2cc3nc(-c4ccco4)nn3c(N)n2)cn1` [Compound 131, 5-Amino-2-(2-furyl)[1,2,4]triazolo[1,5-c]pyrimidine-7-carboxylic acid [N-methyl-N-(6-methoxypyridin-3-ylmethyl)]-amide]: the inhibition in vivo at 10 mg/kg in assay [1] (setting [2]) is 88%. For the same molecule, in assay [1] (10 mg/kg orally), the Total score came out at 6. For the same molecule, at adenosine A2A receptor (setting [3]), the inhibition at 0.1 µM came out at 51%.

For the molecule `Cc1ncccc1CN(C)C(=O)c1cc2nc(-c3ccco3)nn2c(N)n1` [Compound 134, 5-Amino-2-(2-furyl)[1,2,4]triazolo[1,5-c]pyrimidine-7-carboxylic acid [N-methyl-N-(2-methylpyridin-3-ylmethyl)]-amide], the inhibition at 0.1 µM on adenosine A2A receptor (setting [3]) came to 60%.

On to `Nc1nc(C(=O)N2CCCCC2)cc2nc(-c3ccco3)nn12` [Compound 142, 5-Amino-2-(2-furyl)[1,2,4]triazolo[1,5-c]pyrimidin-7-yl piperidino ketone], for which, at adenosine A2A receptor (setting [3]), the inhibition at 0.1 µM was 71%.

In the case of `CC1CCN(C(=O)c2cc3nc(-c4ccco4)nn3c(N)n2)CC1` [Compound 143, 5-Amino-2-(2-furyl)[1,2,4]triazolo[1,5-c]pyrimidin-7-yl 4-methylpiperidino ketone], in assay [1] (setting [2]), the inhibition in vivo at 10 mg/kg is 90%. The molecule also gave a Total score in assay [1] (10 mg/kg orally) of 5. The inhibition at 0.1 µM at adenosine A2A receptor (setting [3]) is 70%.

Consider `CC1CCCN(C(=O)c2cc3nc(-c4ccco4)nn3c(N)n2)C1` (stereo not shown) [Compound 145, 5-Amino-2-(2-furyl)[1,2,4]triazolo[1,5-c]pyrimidin-7-yl 3-methylpiperidino ketone], for which, on adenosine A2A receptor, the inhibition at 0.1 µM is 60%.

In the case of `Nc1nc(C(=O)N2CCCC2)cc2nc(-c3ccco3)nn12` [Compound 148, 5-Amino-2-(2-furyl)[1,2,4]triazolo[1,5-c]pyrimidin-7-yl pyrrolidinyl ketone], the “A2A Receptor inhibition rate (%) at 10^−7 mol/L” value on adenosine A2A receptor (setting [3]) is 75%.
